Source: publication PMC9898036, “VIP152 is a selective CDK9 inhibitor with pre-clinical in vitro and in vivo efficacy in chronic lymphocytic leukemia” (Leukemia, 2022)

What was measured:
[1] = target: PFPK5(P.falciparum) (Plasmodium falciparum, UniProt P61075); experiment: DiscoverX KINOMEscan kinase profiling; assay type: binding; settings: kinase PFPK5(P.falciparum) (Entrez MAL13P1.279); compound concentration 1000 nM; read-out: Percent Control
[2] = target: MAP3K2 (Homo sapiens, UniProt Q9Y2U5); experiment: KINOMEscan: MAP3K2; assay type: binding; settings: 1000 nM, read-out: Percent Control
[3] = target: RSK2(Kin.Dom.1-N-terminal) (Homo sapiens, UniProt P51812); experiment: KINOMEscan: RSK2(Kin.Dom.1-N-terminal); assay type: binding; settings: 100 nM, read-out: Percent Control
[4] = tested on: Thyroid Hormone; experiment: Eurofins Diversity Panel; assay type: binding; settings: rat, Conc. 10 μM
[5] = target: GAK (Homo sapiens, UniProt O14976); experiment: KINOMEscan: GAK; assay type: binding; settings: 1000 nM, read-out: Percent Control
[6] = target: Endothelin ETB (Homo sapiens, UniProt P24530); experiment: Eurofins Diversity Panel; assay type: binding; settings: hum, Conc. 10 μM
[7] = tested on: broad range of receptors, transporters, ion channels, and enzymes; experiment: Eurofins Diversity Panel, whole panel (n = 138); assay type: binding; settings: 10 µM, except imidazoline I2, Sigma σ1, adrenergic α2A, α2B, α2C
[8] = target: DAPK3 (Homo sapiens, UniProt O43293); experiment: KINOMEscan: DAPK3; assay type: binding; settings: 1000 nM, read-out: Percent Control
[9] = target: CSNK1G3 (Homo sapiens, UniProt Q9Y6M4); experiment: KINOMEscan: CSNK1G3; assay type: binding; settings: 1000 nM, read-out: Percent Control
[10] = tested on: Calcium Channel L-Type, Benzothiazepine; experiment: Eurofins Diversity Panel; assay type: binding; settings: rat, Conc. 10 μM
[11] = target: CDK9 in complex with Cyclin T2 (Homo sapiens, UniProt P50750); experiment: NanoBRET target engagement assay (HEK293); assay type: cell-based
[12] = target: ABL2 (Homo sapiens, UniProt P42684); experiment: KINOMEscan: ABL2; assay type: binding; settings: 1000 nM, read-out: Percent Control
[13] = target: EGFR(L747-S752del, P753S) (Homo sapiens, UniProt P00533, DEL747-752/P753S); experiment: KINOMEscan: EGFR(L747-S752del, P753S); assay type: binding; settings: 1000 nM, read-out: Percent Control
[14] = target: FLT1 (Homo sapiens, UniProt P17948); experiment: KINOMEscan: FLT1; assay type: binding; settings: 1000 nM, read-out: Percent Control
[15] = target: Serotonin (5-Hydroxytryptamine) 5-HT2B) (Homo sapiens, UniProt P41595); experiment: Eurofins Diversity Panel; assay type: binding; settings: hum, Conc. 10 μM
[16] = target: hERG potassium channel (Homo sapiens, UniProt Q12809); experiment: Eurofins Diversity Panel; assay type: binding; settings: hum, Conc. 10 μM
[17] = target: FGFR2 (Homo sapiens, UniProt P21802); experiment: KINOMEscan: FGFR2; assay type: binding; settings: 1000 nM, read-out: Percent Control
[18] = target: MAPKAPK2 (Homo sapiens, UniProt P49137); experiment: KINOMEscan: MAPKAPK2; assay type: binding; settings: 1000 nM, read-out: Percent Control
[19] = target: RET(V804M) (Homo sapiens, UniProt P07949, V804M); experiment: KINOMEscan: RET(V804M); assay type: binding; settings: 100 nM, read-out: Percent Control
[20] = target: DMPK2 (Homo sapiens, UniProt Q6DT37); experiment: KINOMEscan: DMPK2; assay type: binding; settings: 1000 nM, read-out: Percent Control
[21] = target: MAP3K15 (Homo sapiens, UniProt Q6ZN16); experiment: KINOMEscan: MAP3K15; assay type: binding; settings: 1000 nM, read-out: Percent Control
[22] = target: ACVR2A (Homo sapiens, UniProt P27037); experiment: KINOMEscan: ACVR2A; assay type: binding; settings: 1000 nM, read-out: Percent Control
[23] = target: SRPK1 (Homo sapiens, UniProt Q96SB4); experiment: KINOMEscan: SRPK1; assay type: binding; settings: 100 nM, read-out: Percent Control
[24] = target: EPHA3 (Homo sapiens, UniProt P29320); experiment: KINOMEscan: EPHA3; assay type: binding; settings: 1000 nM, read-out: Percent Control
[25] = target: CDK9 (Homo sapiens, UniProt P50750); experiment: KINOMEscan: CDK9; assay type: binding
Method: The structure and synthesis of VIP152 were recently described by Lücking et al.. (Fig. 1A); however, the selectivity of the molecule in cellular systems has yet to be explored. […] We also performed this experiment at 1000 nM, where CDK9 was inhibited at 99%. […] We found a strong concordance between our data and those of Lücking when comparing the most inhibited kinases. Potential off-target effects of VIP152 were next tested in vitro at a concentration of 10 µM for off-target activity against a broad range of receptors, transporters, ion channels, and enzymes (n = 138) using the Eurofins Diversity Panel.
Kinomescan Kinase Profiling Assay
Kinomescan Assay was performed at DiscoverRX and described in Fabian, et al. 2005, Nat.
Biotechnol. In brief, kinases were produced and subsequently tagged with DNA for qPCR detection.
Streptavidin-coated magnetic beads were bound to biotinylated kinase ligands to serve as a solid support.
VIP152 was dissolved in DMSO and tested across a 10 serial threefold dilution set and compared to a test compound and a DMSO control. Kinases which were inhibited by VIP152 would not be bound to the solid-support resulting in decreased substrate for the qPCR reaction. Kinome map was produced via TreeSpot Analysis from DiscoverRX. […]
NanoBRETTM Target Engagement Assay Protocol […]
Complete 20X NanoBRET Tracer Reagent was prepared with Tracer Dilution Buffer and dispensed at a ratio of 1:20 Reagent to cells in the tube. The cell

[26] = target: BLK (Homo sapiens, UniProt P51451); experiment: KINOMEscan: BLK; assay type: binding; settings: 1000 nM, read-out: Percent Control
[27] = target: CDK4-cyclinD3 (Homo sapiens, UniProt P11802); experiment: KINOMEscan: CDK4-cyclinD3; assay type: binding; settings: 1000 nM, read-out: Percent Control
[28] = target: TYRO3 (Homo sapiens, UniProt Q06418); experiment: KINOMEscan: TYRO3; assay type: binding; settings: 100 nM, read-out: Percent Control
[29] = target: LRRK2 (Homo sapiens, UniProt Q5S007); experiment: KINOMEscan: LRRK2; assay type: binding; settings: 1000 nM, read-out: Percent Control
[30] = target: MEK4 (Homo sapiens, UniProt P45985); experiment: KINOMEscan: MEK4; assay type: binding; settings: 1000 nM, read-out: Percent Control
[31] = target: HASPIN (Homo sapiens, UniProt Q8TF76); experiment: KINOMEscan: HASPIN; assay type: binding; settings: 1000 nM, read-out: Percent Control
[32] = target: GSK3α (Homo sapiens, UniProt P49840); experiment: NanoBRET target engagement assay (HEK293); assay type: cell-based

CDK9, sequence (P50750 whole entry): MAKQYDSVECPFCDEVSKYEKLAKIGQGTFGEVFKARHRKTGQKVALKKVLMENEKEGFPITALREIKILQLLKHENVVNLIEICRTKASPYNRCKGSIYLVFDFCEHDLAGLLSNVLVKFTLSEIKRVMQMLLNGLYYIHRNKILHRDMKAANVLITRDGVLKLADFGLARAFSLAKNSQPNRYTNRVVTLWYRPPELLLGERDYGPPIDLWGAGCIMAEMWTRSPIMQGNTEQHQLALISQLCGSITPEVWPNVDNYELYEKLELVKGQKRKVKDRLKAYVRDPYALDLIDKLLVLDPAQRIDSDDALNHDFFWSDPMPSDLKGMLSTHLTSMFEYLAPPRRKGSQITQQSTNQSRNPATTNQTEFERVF
MAP3K2, sequence (Q9Y2U5 whole entry): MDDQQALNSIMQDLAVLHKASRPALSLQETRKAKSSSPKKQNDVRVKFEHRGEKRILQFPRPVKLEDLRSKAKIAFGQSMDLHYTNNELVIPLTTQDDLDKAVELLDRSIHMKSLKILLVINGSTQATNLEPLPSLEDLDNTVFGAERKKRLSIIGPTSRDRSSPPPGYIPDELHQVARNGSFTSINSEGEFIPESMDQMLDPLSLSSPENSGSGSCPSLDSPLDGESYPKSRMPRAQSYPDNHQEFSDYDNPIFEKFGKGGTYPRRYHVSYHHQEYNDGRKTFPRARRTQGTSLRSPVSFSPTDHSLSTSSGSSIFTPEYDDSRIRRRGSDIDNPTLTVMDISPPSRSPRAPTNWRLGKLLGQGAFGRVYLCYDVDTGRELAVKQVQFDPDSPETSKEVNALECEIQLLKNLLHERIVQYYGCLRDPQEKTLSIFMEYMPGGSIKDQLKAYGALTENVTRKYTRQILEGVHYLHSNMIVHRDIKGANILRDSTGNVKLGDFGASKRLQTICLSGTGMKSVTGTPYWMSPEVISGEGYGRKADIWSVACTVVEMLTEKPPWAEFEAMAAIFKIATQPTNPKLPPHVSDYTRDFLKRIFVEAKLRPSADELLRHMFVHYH
Endothelin ETB, sequence (P24530 27-442): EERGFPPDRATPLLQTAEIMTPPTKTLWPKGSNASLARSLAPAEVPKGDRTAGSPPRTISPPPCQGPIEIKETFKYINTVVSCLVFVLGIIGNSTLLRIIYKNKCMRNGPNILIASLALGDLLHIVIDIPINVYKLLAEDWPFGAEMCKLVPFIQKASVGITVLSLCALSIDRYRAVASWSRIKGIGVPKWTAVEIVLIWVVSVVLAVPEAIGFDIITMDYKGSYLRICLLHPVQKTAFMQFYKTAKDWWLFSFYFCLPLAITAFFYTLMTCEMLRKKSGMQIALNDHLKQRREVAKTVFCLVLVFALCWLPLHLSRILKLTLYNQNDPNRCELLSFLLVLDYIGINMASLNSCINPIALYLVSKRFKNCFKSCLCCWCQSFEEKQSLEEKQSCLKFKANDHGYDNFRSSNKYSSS
RSK2(Kin.Dom.1-N-terminal), sequence (P51812 1-397 limits assumed): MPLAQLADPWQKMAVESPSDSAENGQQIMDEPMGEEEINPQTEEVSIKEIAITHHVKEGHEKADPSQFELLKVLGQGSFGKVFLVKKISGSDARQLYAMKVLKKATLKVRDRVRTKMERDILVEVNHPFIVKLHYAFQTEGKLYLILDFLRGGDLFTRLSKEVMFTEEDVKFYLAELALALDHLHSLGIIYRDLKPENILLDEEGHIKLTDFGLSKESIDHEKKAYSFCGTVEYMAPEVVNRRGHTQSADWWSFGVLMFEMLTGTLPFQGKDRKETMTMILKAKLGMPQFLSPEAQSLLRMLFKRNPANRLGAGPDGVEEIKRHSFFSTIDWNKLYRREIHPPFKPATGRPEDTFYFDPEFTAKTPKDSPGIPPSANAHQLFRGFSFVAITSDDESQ
FGFR2, sequence (P21802 22-821): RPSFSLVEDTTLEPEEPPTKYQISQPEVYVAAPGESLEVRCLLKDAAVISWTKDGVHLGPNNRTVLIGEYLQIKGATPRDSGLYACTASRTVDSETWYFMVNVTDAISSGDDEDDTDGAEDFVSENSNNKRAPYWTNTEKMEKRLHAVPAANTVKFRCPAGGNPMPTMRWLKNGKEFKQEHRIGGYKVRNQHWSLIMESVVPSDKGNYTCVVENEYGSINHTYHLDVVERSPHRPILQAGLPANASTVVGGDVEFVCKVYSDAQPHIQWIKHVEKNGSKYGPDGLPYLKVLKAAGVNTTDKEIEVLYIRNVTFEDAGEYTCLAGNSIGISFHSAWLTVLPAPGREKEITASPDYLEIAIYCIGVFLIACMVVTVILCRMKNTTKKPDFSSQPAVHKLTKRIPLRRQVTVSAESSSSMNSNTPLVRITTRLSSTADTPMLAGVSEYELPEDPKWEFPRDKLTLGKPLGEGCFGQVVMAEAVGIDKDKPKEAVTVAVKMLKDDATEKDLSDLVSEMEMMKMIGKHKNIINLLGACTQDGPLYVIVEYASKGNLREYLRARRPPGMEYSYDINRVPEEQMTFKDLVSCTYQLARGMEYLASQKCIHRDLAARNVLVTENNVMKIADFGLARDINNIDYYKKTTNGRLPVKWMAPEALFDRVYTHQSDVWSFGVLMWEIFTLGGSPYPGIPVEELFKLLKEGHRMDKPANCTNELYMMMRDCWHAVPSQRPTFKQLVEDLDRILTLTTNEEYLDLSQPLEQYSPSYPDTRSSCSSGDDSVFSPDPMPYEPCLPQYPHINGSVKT
CDK9 in complex with Cyclin T2, sequence (P50750 whole entry): as the sequence (P50750 whole entry) above
CDK9 in complex with Cyclin T2, sequence (O60583 whole entry partner): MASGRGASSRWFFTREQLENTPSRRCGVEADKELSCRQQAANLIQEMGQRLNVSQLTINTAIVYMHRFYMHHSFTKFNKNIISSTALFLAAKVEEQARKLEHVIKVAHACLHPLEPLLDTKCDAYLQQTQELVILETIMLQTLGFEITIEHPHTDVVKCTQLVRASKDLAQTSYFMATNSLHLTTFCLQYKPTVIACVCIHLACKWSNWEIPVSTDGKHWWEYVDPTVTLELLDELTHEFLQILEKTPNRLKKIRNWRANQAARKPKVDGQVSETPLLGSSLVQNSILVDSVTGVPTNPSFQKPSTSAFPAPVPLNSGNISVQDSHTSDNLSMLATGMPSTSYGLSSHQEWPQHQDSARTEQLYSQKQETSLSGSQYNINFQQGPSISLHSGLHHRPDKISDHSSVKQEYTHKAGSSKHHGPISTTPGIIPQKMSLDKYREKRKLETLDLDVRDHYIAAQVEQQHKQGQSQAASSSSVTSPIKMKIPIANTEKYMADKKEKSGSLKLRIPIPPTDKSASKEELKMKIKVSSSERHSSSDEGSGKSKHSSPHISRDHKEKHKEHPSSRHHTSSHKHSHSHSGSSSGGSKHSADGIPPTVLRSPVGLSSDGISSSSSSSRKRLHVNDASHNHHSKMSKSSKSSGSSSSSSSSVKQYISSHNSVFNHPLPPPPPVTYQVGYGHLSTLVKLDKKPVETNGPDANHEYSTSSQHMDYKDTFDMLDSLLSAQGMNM
GAK, sequence (O14976 whole entry): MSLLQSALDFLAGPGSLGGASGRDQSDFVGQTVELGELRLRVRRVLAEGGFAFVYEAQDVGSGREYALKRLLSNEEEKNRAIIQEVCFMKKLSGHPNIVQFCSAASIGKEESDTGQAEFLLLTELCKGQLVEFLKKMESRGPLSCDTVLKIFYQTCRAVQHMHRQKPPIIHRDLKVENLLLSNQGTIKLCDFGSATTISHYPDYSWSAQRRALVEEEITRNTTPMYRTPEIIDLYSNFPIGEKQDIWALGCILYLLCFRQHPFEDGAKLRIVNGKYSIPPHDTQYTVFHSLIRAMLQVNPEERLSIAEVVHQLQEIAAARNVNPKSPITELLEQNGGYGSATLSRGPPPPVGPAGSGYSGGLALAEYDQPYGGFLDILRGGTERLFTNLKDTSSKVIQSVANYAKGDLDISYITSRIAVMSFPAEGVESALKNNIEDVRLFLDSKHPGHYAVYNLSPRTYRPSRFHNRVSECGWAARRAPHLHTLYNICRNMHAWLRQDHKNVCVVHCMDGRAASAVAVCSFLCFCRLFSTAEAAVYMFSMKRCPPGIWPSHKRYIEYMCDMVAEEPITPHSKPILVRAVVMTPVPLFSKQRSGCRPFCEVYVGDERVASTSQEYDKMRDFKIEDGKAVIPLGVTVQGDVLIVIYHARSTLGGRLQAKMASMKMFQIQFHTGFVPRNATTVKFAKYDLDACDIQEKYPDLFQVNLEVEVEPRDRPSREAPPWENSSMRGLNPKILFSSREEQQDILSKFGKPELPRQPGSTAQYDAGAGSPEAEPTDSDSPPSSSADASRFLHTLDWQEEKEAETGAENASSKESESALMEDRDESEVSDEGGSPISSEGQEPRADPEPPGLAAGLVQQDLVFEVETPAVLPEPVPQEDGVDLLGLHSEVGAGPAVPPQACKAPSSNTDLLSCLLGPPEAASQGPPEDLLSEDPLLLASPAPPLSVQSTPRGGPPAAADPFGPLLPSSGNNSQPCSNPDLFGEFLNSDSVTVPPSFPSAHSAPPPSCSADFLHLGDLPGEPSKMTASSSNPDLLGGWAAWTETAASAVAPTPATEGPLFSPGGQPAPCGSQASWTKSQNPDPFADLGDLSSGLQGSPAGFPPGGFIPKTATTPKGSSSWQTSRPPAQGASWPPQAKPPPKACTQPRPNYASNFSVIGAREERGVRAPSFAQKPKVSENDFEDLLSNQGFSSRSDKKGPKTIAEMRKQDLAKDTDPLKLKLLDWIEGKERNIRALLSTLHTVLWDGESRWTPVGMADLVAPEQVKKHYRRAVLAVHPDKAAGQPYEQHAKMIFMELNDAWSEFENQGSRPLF
PFPK5(P.falciparum), sequence (P61075 whole entry): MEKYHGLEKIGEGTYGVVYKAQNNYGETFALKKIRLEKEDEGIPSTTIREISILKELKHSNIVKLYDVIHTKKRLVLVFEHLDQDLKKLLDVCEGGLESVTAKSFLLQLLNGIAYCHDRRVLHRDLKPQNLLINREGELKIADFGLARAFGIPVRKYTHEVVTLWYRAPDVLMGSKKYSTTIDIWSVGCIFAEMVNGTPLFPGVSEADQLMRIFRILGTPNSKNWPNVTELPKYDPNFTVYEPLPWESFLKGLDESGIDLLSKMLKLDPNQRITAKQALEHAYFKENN

COc1cc(F)ccc1-c1cc(Nc2cc(CS(C)(=N)=O)ccn2)ncc1F (stereo not drawn) [VIP152]
remaining binding at 1 µM [1]: 99%
remaining binding at 1 µM [2]: 57%
remaining binding at 0.1 µM [3]: 100%
% Inh. [4]: 20%
remaining binding at 1 µM [5]: 82%
inhibition at 10 µM [6]: 3%
off-target activity across the panel [7]: No significant (>50%) interference
remaining binding at 1 µM [8]: 91%
remaining binding at 1 µM [9]: 97%
% Inh. [10]: 16%
potency versus the other inhibitors [11]: higher potency
remaining binding at 1 µM [12]: 65%
remaining binding at 1 µM [13]: 94%
remaining binding at 1 µM [14]: 86%
inhibition at 10 µM [15]: 56%
inhibition at 10 µM [16]: 26%
remaining binding at 1 µM [17]: 70%
remaining binding at 1 µM [18]: 81%
remaining binding at 0.1 µM [19]: 100%
remaining binding at 1 µM [20]: 88%
remaining binding at 1 µM [21]: 93%
remaining binding at 1 µM [22]: 75%
remaining binding at 0.1 µM [23]: 100%
remaining binding at 1 µM [24]: 89%
inhibition of CDK9 greater than that of CDK7 ([25]; 100 nM): 7 fold
inhibition at 0.1 µM ([25]; 100 nM, read-out: inhibition of CDK9 activity compared with control): 95.3%
inhibition at 1 µM ([25]; 1000 nM): 99%
remaining binding at 0.1 µM ([25]; CDK9, 100 nM, read-out: Percent Control): 4.7%
remaining binding at 1 µM ([25]; CDK9, 1000 nM, read-out: Percent Control): 1%
remaining binding at 1 µM [26]: 76%
remaining binding at 1 µM [27]: 14%
remaining binding at 0.1 µM [28]: 100%
remaining binding at 1 µM [29]: 50%
remaining binding at 1 µM [30]: 89%
remaining binding at 1 µM [31]: 99%
inhibitory capacity against GSK3α [32]: Inhibits
